# Results published in patent US9138659B2, “Compositions, methods, and systems relating to controlled crystallization and/or nucleation of molecular species” (Massachusetts Institute of Technology, priority 2010, dated 2015).
# “Also recorded” adds a separate entry of the source.
# Tests used:
# [1] = Nucleation induction time of ASA / ACM with PEGDA or PEGDA-co-AM microgels in 38/62 ethanol/water; type: physicochemical; conditions: for average nucleation induction time τ: ACM S = 3.7; for Average nucleation induction time τ (stretched exponential fit) / τ1 (two-exponential fit) / τ2 (two-exponential fit): ACM
# Description: Nucleation kinetics of model compounds was investigated by measuring the nucleation induction time probability distribution. Nucleation induction time is generally time elapsed prior to the formation of a detectable amount of the new crystalline phase. It is a useful indicator of the surface nucleation activity because it can be dramatically shortened when the presence of an interface lowers the free energy barrier of nucleation. Due to the stochastic nature of nucleation events, a large number of experiments were performed to obtain the probability distribution of nucleation induction time. To obtain the average induction time τ, statistical analysis on the induction time data was conducted based on the understanding that nucleation follows a Poisson distribution. According to Poisson statistics, the probability for a nucleation event to occur beyond time t is P=exp(−t/τ), which implies that the fraction of vials without nucleation at time t exponentially decays as a function of time, where the scaling factor for time is the average induction time.
# For determining the statistical analysis of aspirin nucleation induction time with PEGDA particles of various mesh sizes (particles denoted by Mn), 1.9 mL of 38 mg/ml ASA solution in 38/62 ethanol/water (v/v) with 15 μg/mL PEGDA particles was cooled at a rate of 5° C./min from 35° C. to 15° C. to achieve a supersaturation of 2.1. The solution was stirred at 700 rpm. The onset of nucleation was detected by an IR probe which measures the transmission signal through the solution. A total of 10 vials were cycled for 5-10 times to yield 50-100 nucleation induction time measurements for the statistical analysis.
# The nucleation rate, J, is given by J=1/τV, where τ the average induction time (Table 1) and V the volume of solution. For this equation to be valid, the assumption is that the crystal growth rate is much faster than the nucleation rate, which is the case for ASA. […] Other crystallization conditions were kept the same.
# […] The solution was stirred at 700 rpm. The onset of nucleation was detected by an IR probe which measures the transmission signal through the solution. A total of 10 vials were cycled for 5-10 times to yield 50-100 nucleation induction time data for the statistical analysis.
# Effect of polymer gels on nucleation induction time statistics: To evaluate the impact of polymer-solute interactions on nucleation kinetics, induction times of ASA and ACM were measured with microgels of a series average mesh sizes before and after chemical modification suspended in respective supersaturated solutions. […] For each system, a large number of experiments (50-100) were conducted to obtain the induction time probability distribution. The nucleation induction time generally follows the Poisson distribution. However, deviations can occur, as observed in this study, when there is more than one type of nucleation sites in a sample, giving rise to multiple Poisson processes with different characteristic time scales.
# For samples with PEGMDA microgels, the nucleation induction time distributions reported in previous work can be faithfully described by stretched exponentials (Tables 5 and 6), P=exp[−(t/τ)^β], where P is the probability to observe no crystallization event within time t, τ the average induction time. The stretched exponential exponent β served as a measure for the spread of time scales characterizing the nucleation process, or the distribution of kinetic barriers arisen from the heterogeneity of the system. Such heterogeneity can be attributed to the heterogeneity of the polymer microstructure identified using SANS, which resulted from a distribution of nucleation sites arising from spatial variations in both the mesh size and chemical composition of the hydrogel at nanometer length scales. Note that β varies with the average mesh size of the microgel. […]
# [2] = Solubility of ASA and ACM; type: physicochemical; conditions: aqueous with cosolvent or surfactant or cyclodextrin; 38/62 (v/v) ethanol/water mixture at 25° C
# [3] = Equilibrium partitioning of ASA / ACM into PEGDA and PEGDA-co-AM gels; type: physicochemical; conditions: for increase in κ with modified gels: ACM
# Procedure: This theory is exemplified by quantifying the partitioning of aspirin between the PEGDA gel phase and 38/62 ethanol/water (v/v), and determining the concentration of aspirin in the hydrogel particles. The partitioning experiments were performed at the same solution concentration and temperature as in the nucleation induction time experiments. In the partitioning experiment, both the concentrations of aspirin and ethanol were measured, as there are three species in the bulk solution, namely aspirin, ethanol and water, all of which partition in the gel phase to a certain degree determined by their relative interaction with the PEGDA polymer matrix.
# Composition of aspirin solution in the PEGDA gel phase were compared with the bulk phase. PEGDA gels sufficiently large for convenient handling were synthesized by UV polymerization, following the same formulation as the synthesis of PEGDA particles used in the crystallization study. The PEGDA gels were washed with ethanol and vacuum dried to remove unreacted species. The gel was then immersed in excessive 38 mg/ml aspirin solution in 38/62 ethanol/water (v/v) and allowed sufficient time to reach equilibrium swelling at 15° C. before taken out, pad dried, and put in excessive water. After 5 hours immersed in water, the concentrations of aspirin and ethanol in the aqueous phase were analyzed by UV-Vis spectroscopy and Gas Chromatography, respectively.
# In FIG. 10: Partitioning of aspirin vs. acetaminophen in the PEGDA gel. Y axis represents the relative API concentration in the PEGDA, normalized by the bulk concentration. The aspirin partitioning experiment was conducted in 38 mg/ml aspirin solution in 38/62 ethanol/water (v/v) at 15° C. As for acetaminophen, 95 mg/ml acetaminophen solution in 38/62 ethanol/water (v/v) was used and the equilibration temperature was 8° C. In both cases, the experimental conditions were kept the same as used in the nucleation induction time study.
# Quantification of polymer-solute interactions: The strength of intermolecular interactions between the PEGDA-co-AM polymer network and the molecule to crystallize was characterized with the solute equilibrium partition coefficient at the same condition as used in the crystallization study. Solute partition coefficient κ, defined as the ratio of solute mass fraction in solution confined in the gel to that in the bulk, is a relevant parameter because it informs the solute concentration in the gel at the crystallization condition, which is an important factor affecting nucleation. […] The PEGDA polymers are comprised of the PEG subchain and the acrylate crosslinkers.
# Partition coefficient measurements: Partition coefficients of ASA in PEGDA-co-AM gels from its bulk solution were determined as follows. In brief, a series of gels with varying mesh sizes of approximately 5 mm in diameter and 0.5 mm in thickness were synthesized via UV polymerization following the same formula as used in the microgel synthesis. The residue solvent, porogen and monomer molecules were removed by extensive washing with solvent ethanol and subsequent vacuum drying. The dry gels were then immersed in excessive volume of 38 mg/ml ASA solution in 38/62 (v/v) ethanol/water at 15° C. for overnight.
# [4] = CBZ anhydrous forms; ambient conditions; cited from earlier work
# [5] = CBZ nucleation induction time and polymorphic outcome with PEGMDA microgels in ethanol; type: physicochemical
# Description: Results and Discussion: Monodispersed cubelike PEGMDA microgels (FIG. 27 left), with M ranging from 130 to 700 g/mol were synthesized by Stop-Flow Lithography, The mesh sizes vary from 0.7 to 1.5 nm in solvent ethanol (Table 9), estimated from equilibrium swelling by the Flory-Rehner theory. The accuracy of this method for obtaining mesh sizes has been confirmed with Small-Angle Neutron Scattering in a different solvent. The microgels were utilized for controlling polymorph crystallization by suspending ˜10 μg of microgels per 1 ml solution by stiffing. Such a low microgel concentration may be sufficient to effect drastic change in the crystallization behavior (discussed later), underscoring the effectiveness of polymer microgels in controlling crystallization. In all crystallization experiments, supersaturation of the solution was generated by cooling instead of solvent evaporation, despite its popularity in numerous polymorph studies, to yield better control over the crystallization process.
# Occasionally, pure Form III was also obtained from bulk experiments. […] However, such polymorph selectivity could not be attained using microgels with M<400 g/mol (˜100 trials) where the polymorphic outcome was quite similar to that of the bulk samples (Table 9), only with a decreased mass fraction of Form I in the mixture obtained (FIG. 28 discussed later) and a lower frequency of occurrence of Form III.
# Average mesh size ξ was estimated from equilibrium swelling experiments in solvent ethanol. Induction time distribution data were fitted with stretched exponentials via nonlinear least square regression: P=exp[−(t/τ)^β], where P is the probability to observe no crystallization event within time t.
# Induction time was measured by monitoring IR transmission signal passing through a solution in controlled temperature environment and stirring condition. Once nucleation occurred, the solution became turbid in seconds indicated by a sharp drop of IR signal, due to secondary nucleation and rapid crystal growth. The statistical nature of nucleation necessitated a large number of experiments (50-100) for obtaining the distribution of induction times, from which the average induction time τ was regressed with a stretched-exponential model, P(t)=exp[−(t/τ)^β], where P is the probability to observe no crystallization event within time t. In brief, the stretched-exponential model modified the single exponential model derived from the Poisson statistics, P(t)=exp (−t/τ) by adding an exponent β to the dimensionless induction time t/τ to capture the spread in characteristic time scales caused by a distribution of nucleation active sites present in the system.
# [6] = Partition coefficients of CBZ and ROY in PEGMDA microgels from ethanol solutions; type: physicochemical; conditions: ethanol solution
# [7] = PEGDA-co-AM microgels M 130 g/mol
# [8] = PEGDA-co-AM microgels M 200 g/mol
# [9] = PEGDA-co-AM microgels M 400 g/mol
# [10] = CBZ, Bulk ethanol solution, S=1.63, T=25° C
# [11] = CBZ, PEGMDA microgels M 130 g/mol
# [12] = CBZ, PEGMDA microgels M 200 g/mol
smiles,measurement,setting,value
CC(=O)Nc1ccc(O)cc1 [acetaminophen],average nucleation induction time τ,"[1]; Bulk (no particles), 38/62 ethanol/water",6500 ± 1600 min
same,average nucleation induction time τ,[1]; PEGDA microparticles Mn 130 g/mol,920 ± 70 min
same,average nucleation induction time τ,[1]; PEGDA microparticles Mn 200 g/mol,540 ± 20 min
same,average nucleation induction time τ,[1]; PEGDA microparticles Mn 400 g/mol,1720 ± 150 min
same,average nucleation induction time τ,[1]; PEGDA microparticles Mn 700 g/mol,6500 ± 1600 min
same,Average nucleation induction time τ (stretched exponential fit),[1]; Bulk,37000 min
same,Average nucleation induction time τ (stretched exponential fit),[1]; PEGDA microgels M 130 g/mol,1600 min
same,Average nucleation induction time τ (stretched exponential fit),[1]; PEGDA microgels M 200 g/mol,480 min
same,Average nucleation induction time τ (stretched exponential fit),[1]; PEGDA microgels M 400 g/mol,5300 min
same,Average nucleation induction time τ (stretched exponential fit),[1]; PEGDA microgels M 700 g/mol,37000 min
same,τ1 (two-exponential fit),[1]; [7],55 min
same,τ2 (two-exponential fit),[1]; [7],1360 min
same,τ1 (two-exponential fit),[1]; [8],88 min
same,τ2 (two-exponential fit),[1]; [8],12400 min
same,τ1 (two-exponential fit),[1]; [9],70 min
same,τ2 (two-exponential fit),[1]; [9],35000 min
same,promotion of nucleation kinetics when AM co-monomer was introduced into the PEGDA matrix,[1]; PEGDA-co-AM vs PEGDA microgels,up to two orders of magnitude
same,best enhancement in nucleation kinetics by addition of PEGDA particles,"[1]; vs bulk, Table 2",about ten-fold
same,solubility,[2],90 mg/mL
same,acetaminophen concentration in PEGDA particles relative to bulk concentration,"[3]; 95 mg/ml in 38/62 ethanol/water, 8° C, FIG. 10",approximately twice the bulk concentration
same,increase in κ with modified gels,[3]; Mn=130 g/mol,35%
same,increase in κ with modified gels,[3]; Mn=700 g/mol,14%
"NC(=O)N1c2ccccc2C=Cc2ccccc21 [CBZ, carbamazepine]",energy separation between form III and II,[4],less than 0.7 kcal/mol
same,Polymorph,[5]; [10],"concomitant crystallization of Forms I and II; also recorded: II & I, occasionally"
same,average nucleation induction time τ,[5]; [10],427 ± 13 min
same,Polymorph,[5]; [11],II & I
same,average nucleation induction time τ,[5]; [11],222 ± 5 min
same,Polymorph,[5]; [12],II & I
same,average nucleation induction time τ,[5]; [12],174 ± 11 min
same,average nucleation induction time τ,"[5]; CBZ, PEGMDA microgels M 400 g/mol",10.9 ± 0.3 min
same,average nucleation induction time τ,"[5]; CBZ, PEGMDA microgels M 575 g/mol",33 ± 1 min
same,average nucleation induction time τ,"[5]; CBZ, PEGMDA microgels M 700 g/mol",49 ± 1 min
same,Polymorph crystallized,"[5]; CBZ, PEGMDA microgels with M≧400 g/mol, ~250 trials",pure Form II
same,optimum mesh size for CBZ nucleation,[5]; PEGMDA microgels,1.1 nm
same,Partition coefficient κ (solute mass fraction in gel solution / bulk),[6]; PEGMDA microgels M 130 g/mol,3.0 ± 0.4
same,Partition coefficient κ (solute mass fraction in gel solution / bulk),[6]; PEGMDA microgels M 200 g/mol,2.7 ± 0.1
same,Partition coefficient κ (solute mass fraction in gel solution / bulk),[6]; PEGMDA microgels M 400 g/mol,3.8 ± 0.2
same,Partition coefficient κ (solute mass fraction in gel solution / bulk),[6]; PEGMDA microgels M 575 g/mol,3.8 ± 0.04
same,Partition coefficient κ (solute mass fraction in gel solution / bulk),[6]; PEGMDA microgels M 700 g/mol,3.7 ± 0.1
